Data as given in EP1080728A1, “PROSTAGLANDIN EP4 RECEPTOR AGONIST AND TREATMENT METHOD” (TORAY INDUSTRIES, INC., priority 1999, dated 2000).

Experiments:
[1] = molecular target: T1, human EP4 receptor subtype (Homo sapiens, UniProt P35408); test: Receptor binding study using PGE2 receptor subtype expression cells (3H-PGE2 displacement, membrane fraction); conditions: human EP4 receptor transiently expressed in COS-7 cells, membrane fraction 10 µg/tube, 3H-PGE2 5 nM, 30°C for 1 hour; Ki = IC50/(1+[C]/Kd); read-out: DISSOCIATION CONSTANT Ki (nM) EP4
T1 construct: expressed in transfected cells; host or cells: COS-7 cells (transient expression), membrane fraction
T1 sequence (P35408 whole entry): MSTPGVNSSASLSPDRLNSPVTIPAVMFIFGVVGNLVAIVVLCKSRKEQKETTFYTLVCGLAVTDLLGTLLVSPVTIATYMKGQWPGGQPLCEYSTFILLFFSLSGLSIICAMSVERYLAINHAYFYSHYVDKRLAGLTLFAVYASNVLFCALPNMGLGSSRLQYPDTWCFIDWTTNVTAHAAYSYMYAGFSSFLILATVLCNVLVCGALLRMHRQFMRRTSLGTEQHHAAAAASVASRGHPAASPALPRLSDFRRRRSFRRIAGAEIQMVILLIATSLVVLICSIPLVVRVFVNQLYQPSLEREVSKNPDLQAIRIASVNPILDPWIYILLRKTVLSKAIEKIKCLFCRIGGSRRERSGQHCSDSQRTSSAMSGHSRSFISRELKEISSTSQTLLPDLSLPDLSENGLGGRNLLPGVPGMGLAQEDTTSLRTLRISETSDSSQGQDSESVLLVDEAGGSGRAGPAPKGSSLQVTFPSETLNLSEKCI
Description: The compound represented by the following formula (II) among the compounds represented by the general formula (I) strongly binds to the EP4 receptor as a subtype of the PGE2 receptor. The binding activity was confirmed in comparison with PGE2 by an experiment using the PGE2 receptor subtype expression cells. [drawing 2]
The experiment was carried out according to the previous report [Breyer, R. M. et al., J. Biol. Chem. 269, 6163-6169 (1994)], wherein the human EP4 receptor subtype was transiently expressed using COS-7 cells. These cells were prepared as membrane samples. The membrane fraction prepared (10 µg/tube) was incubated with reaction solution containing ^3H-PGE2 at 30°C for 1 hour. The reaction was terminated with ice-cold buffer [10mM MES (pH6.0), 10mM MgCl2, 1mM EDTA], and the bound ^3H-PGE2 was trapped on a glass filter (GF/C) by vacuum filtration under a reduced pressure, followed by counting the radioactivity with a liquid scintillator.
The Kd value and Bmax were determined from a Scatchard plot according to the conventional method. The non-specific binding was determined by the amount of binding in the presence of an excess amount (5 µM) on the non-labeled PGE2. Inhibitory action of the ^3H-PGE2 binding by the compound to be tested was determined at a concentration of ^3H-PGE2 of 5 nM by adding various concentrations of the compound to be tested. […]

[2] = test system: human normal lung fibroblast cells; test: Effects on collagen production in human normal lung fibroblast cells (TGF-β1 stimulated, Siricol Collagen Assay Kit); format: cell-based; conditions: compound 1 µM with TGF-β1 5 ng/ml, incubated for 24 hours; salt-soluble collagen; Reference (without compound): 1.1 µg/100,000 cells
Description: The suppression action of the compound represented by the formula (II) on the collagen production from the fibroblast cells was confirmed by the following test method. After the human normal lung fibroblast cells were cultured for 48 hours under the condition of confluence (Eagle MEM culture medium with 0.45% FBS), the cells were added(1 µM) the compound represented by the formula (II) and transforming growth factor β1 (TGF-β1) at a concentration of 5 ng/ml, then incubated for 24 hours. The supernatant from the cell culture medium was concentrated by freeze-drying, and the amount of collagen (salt-soluble collagen) was […] assayed using Siricol Collagen Assay Kit (made by Biocolor Co.). The amounts of collagen in the supernatant were as follows: Reference: 1.1 µg/100,000 cells Compound (II): 0.5 µg/100,000 cells It was confirmed that production of collagen by TGF-β1 was suppressed by the compound according to the present invention.

Question: Which Ki [1] does the source give for `O=C(O)CCc1cccc2c1O[C@H]1C[C@@H](O)[C@H](/C=C/[C@@H](O)CC3CCCCC3)[C@@H]21` [COMPOUND (II)] here?
Answer: 19 nM

Question: What about the “amounts of collagen in the supernatant” value [2] of the same compound?
Answer: 0.5 µg/100,000 cells
